# Tests used:
# GR-controlled genes = assay: Whole blood mRNA expression (NanoString) in cancer patients of study NCT02762981, baseline vs C1D15; type: in vivo, human; details: for expression levels of COX2, DUSP1, GSK3b, MCL-1, PIK3CG and RGS-2 (mRNA): 40 cancer patients (FIG. 5B); for genes downregulated in whole blood, baseline to C1D15: 800-gene panel, relacorilant+nab-paclitaxel; for enrichment of genes shared in the sets induced by prednisone and suppressed by relacorilant / genes shared in the sets induced by prednisone and suppressed by relacorilant: top 200 genes each
# Procedure: Blood was collected at baseline, prior to administration of relacorilant or nab-paclitaxel. Blood was also drawn in the morning, pre-dose, on cycle 1, day 15. Blood (in the amount of 2.5 milliLiters (mL)) was drawn into a PAXGene blood RNA tube (Qiagen) using a butterfly needle. The tube was sealed and gently inverted 10 times. The tube was frozen in dry ice and stored at −80° C. until RNA extraction.
# Paired baseline and cycle 1, day 15 (C1D15) specimens were thawed and processed in the same batch. RNA was isolated using the PAXgene Blood RNA kit (Qiagen) using the protocol recommended by the manufacturer. RNA yield was quantified using a NanoDrop ND-2000 spectrophotometer (ThermoFisher Scientific). RNA was assessed using a custom 33-gene panel after mRNA sample preparation and hybridization using NanoString nCounter XT Assay, following the operation and maintenance instructions for the NanoString prep station and digital analyzer. Specific RNA transcripts were quantified using a Nanostring nCounter FLEX instrument (NanoString Technologies) and analyzed using nSolver 3.0. (Nanostring Technologies, Seattle Wash., USA).
# Housekeeping gene pairwise correlations were determined using nSolver 3.0 (NanoString Technologies). Test genes were normalized to the housekeeping genes HPRT1, PPIB, TRAP1, EEF1A1, and TBP. Change from baseline was calculated using the RNA counts at baseline and cycle 1, day 15 as follows: Change from Baseline=(C1D15−baseline)/(baseline) Results Housekeeping Genes Selection
# Calculations For FIG. 6, the normalized counts of 10 GR-controlled genes were averaged. Change from baseline of these averaged values was calculated per patient using the formula: Percent change from baseline=((average value at C1D15)−(average value at baseline))/(average value at baseline)*100Gene set enrichment statistics were calculated using the program available at the URL: Nemates.org/MA/progs/overlap_stats_prog.html
# RNA isolation and quantification RNA was assessed using a custom 800-gene panel after mRNA sample preparation and hybridization using NanoString nCounter Assay, following the operation and maintenance instructions for the NanoString prep station and digital analyzer. The 800 gene panel was comprised of the Nanostring 10360™ panel plus the following 10 custom probes:
# Data normalization and analysis Housekeeping gene pairwise correlations were determined using advanced analysis in nSolver 3.0 (NanoString Technologies). Test genes were normalized to the housekeeping genes selected by geNORM. […]
# glucocorticoid receptor = target: T1, glucocorticoid receptor (Homo sapiens, UniProt P04150); details: cited from earlier work
# T1 sequence (P04150 1-777): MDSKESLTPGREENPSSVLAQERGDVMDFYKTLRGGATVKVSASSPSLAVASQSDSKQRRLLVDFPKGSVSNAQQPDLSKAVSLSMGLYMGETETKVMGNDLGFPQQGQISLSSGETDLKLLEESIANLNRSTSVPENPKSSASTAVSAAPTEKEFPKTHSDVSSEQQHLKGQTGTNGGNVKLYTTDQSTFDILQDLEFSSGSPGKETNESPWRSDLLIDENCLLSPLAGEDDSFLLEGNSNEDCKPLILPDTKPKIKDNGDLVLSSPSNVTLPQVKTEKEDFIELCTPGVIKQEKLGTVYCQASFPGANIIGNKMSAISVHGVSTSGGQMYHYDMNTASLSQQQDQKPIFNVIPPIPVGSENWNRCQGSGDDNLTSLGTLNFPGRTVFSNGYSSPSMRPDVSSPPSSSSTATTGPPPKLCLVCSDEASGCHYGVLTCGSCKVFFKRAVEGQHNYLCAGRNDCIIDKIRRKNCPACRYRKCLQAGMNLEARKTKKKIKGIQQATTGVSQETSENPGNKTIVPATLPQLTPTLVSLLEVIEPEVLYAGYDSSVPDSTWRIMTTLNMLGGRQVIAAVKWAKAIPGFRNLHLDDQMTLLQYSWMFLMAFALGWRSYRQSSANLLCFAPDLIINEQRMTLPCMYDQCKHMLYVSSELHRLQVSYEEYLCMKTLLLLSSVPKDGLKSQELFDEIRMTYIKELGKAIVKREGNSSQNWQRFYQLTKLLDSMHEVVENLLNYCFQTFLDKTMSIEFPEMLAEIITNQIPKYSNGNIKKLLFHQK
# [1] = patients with progressive disease
compound,measurement,setting,value
"Cn1cc(S(=O)(=O)N2CCC3=Cc4c(cnn4-c4ccc(F)cc4)C[C@]3(C(=O)c3cc(C(F)(F)F)ccn3)C2)cn1 [relacorilant, (R)-(1-(4-fluorophenyl)-6-((1-methyl-1H-pyrazol-4-yl)sulfonyl)-4,4a,5,6,7,8-hexahydro-1H-pyrazolo[3,4-g]isoquinolin-4a-yl)(4-(trifluoromethyl)pyridin-2-yl)methanone]","expression levels of COX2, DUSP1, GSK3b, MCL-1, PIK3CG, RGS-2, SGK1 and STAT3 (mRNA)","GR-controlled genes; 21 cancer patients (FIG. 5A), patients who derived benefit from relacorilant+nab-paclitaxel",decreased as compared to baseline
same,"expression levels of COX2, DUSP1, GSK3b, MCL-1, PIK3CG, RGS-2, SGK1 (mRNA)","GR-controlled genes; 21 cancer patients (FIG. 5A), patients whose cancer progressed",did not exhibit decreased levels
same,"expression levels of COX2, DUSP1, GSK3b, MCL-1, PIK3CG and RGS-2 (mRNA)",GR-controlled genes; patients who derived benefit from relacorilant+nab-paclitaxel,decreased as compared to baseline
same,"expression levels of COX2, DUSP1, GSK3b, MCL-1, PIK3CG and RGS-2 (mRNA)",GR-controlled genes; patients whose cancer progressed,did not exhibit decreased levels
same,"genes downregulated in whole blood, baseline to C1D15",GR-controlled genes; PD patients,30 genes
same,"genes downregulated in whole blood, baseline to C1D15",GR-controlled genes; SD/PR/CR patients,92 genes
same,"normalized DUSP1 mRNA counts, baseline vs cycle 1 day 15","GR-controlled genes; all patients, relacorilant + nab-paclitaxel, paired t-test p=0.065",not significantly different
same,"normalized DUSP1 mRNA counts, baseline vs cycle 1 day 15","GR-controlled genes; patients experiencing benefit (SD, PR, CR), relacorilant + nab-paclitaxel, paired t-test p=0.015",significant decrease
same,"decrease in DUSP1 counts, baseline vs cycle 1 day 15","GR-controlled genes; patients with progressive disease, relacorilant + nab-paclitaxel",not observed
same,enrichment of genes shared in the sets induced by prednisone and suppressed by relacorilant,GR-controlled genes; patients who benefited,2.2 fold
same,genes shared in the sets induced by prednisone and suppressed by relacorilant,"GR-controlled genes; patients who benefited, p=3×10^−30",116 genes
same,enrichment of genes shared in the sets induced by prednisone and suppressed by relacorilant,GR-controlled genes; [1],0.7 fold
same,genes shared in the sets induced by prednisone and suppressed by relacorilant,GR-controlled genes; [1],38 genes
same,binding to the glucocorticoid receptor,glucocorticoid receptor,potently binds
